Laboratory results published in the supplement of paper PMC11208160.

Test: recombinant barcode read abundance after kanamycin selection (control-corrected) (log10(CPM+1)); higher = more efficient recombination; sequences stand for … in AGTGCAGAGAAAATCGGCCAGTTTTCTCTGCCTGCAGTCCGCATGCCGT…AGATTTATGCAGCGGACTGCCTTTCTCCCAAAGTGATAAACCGGACAGTATCATGGACCGGTTTTCCCGGTAATCCGTATTTGCAAGGTTGGTTTCACT; site = the 11-nt target
Method in brief: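 Pooled oligos, each joining a target to an IS621 bridge RNA target-binding loop, were cloned and co-electroporated with a donor plasmid into E. coli. Selective plates carried chloramphenicol/ampicillin/kanamycin and 0.1 mM IPTG, while chloramphenicol/ampicillin LB agar served as control, with two replicates of each. Recombination efficiency rests on averaged, control-corrected counts per million of barcodes at recombinant junctions, shown as log10(CPM+1).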
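Note: IS621 recombinase and bridge RNA in Escherichia coli cells.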

| Sequence | recombinant barcode read abundance (log10) |
| --- | --- |
| CTATTCGCTTGGGTTCTAACCTGTTGCCT (site CTATTCACTAG) | 0.295 |
| CTATTCGCTTGGGTTCTAACCTGTTGCCT (site CTATTCCCTAG) | 0.0147 |
| CTATTCGCTTGGGTTCTAACCTGTTGCCT (site CTATTCGCTAG) | 1.49 |
| CTATTCGCTTGGGTTCTAACCTGTTGCCT (site CTATTCTCTAG) | 0.218 |
| CTATTGACTTGGGTTCTAACCTGTTGCCT (site CTATAGACTAG) | 0.0514 |
| CTATTGACTTGGGTTCTAACCTGTTGCCT (site CTATCGACTAG) | 0.246 |
| CTATTGACTTGGGTTCTAACCTGTTGCCT (site CTATGGACTAG) | 0.11 |
| CTATTGACTTGGGTTCTAACCTGTTGCCT (site CTATTGACTAG) | 1.42 |
| CTATTGTCTTGGGTTCTAACCTGTTGCGC (site CTATTGTCTAC) | 0.06 |
| CTATTGTCTTGGGTTCTAACCTGTTGCGC (site CTATTGTCTCC) | 0.0404 |
| CTATTGTCTTGGGTTCTAACCTGTTGCGC (site CTATTGTCTGC) | 2.77 |
| CTATTGTCTTGGGTTCTAACCTGTTGCGC (site CTATTGTCTTC) | 0.909 |
| CTATTTACTTGGGTTCTAACCTGTTGCCT (site CTAATTACTAG) | 0.0674 |
| CTATTTACTTGGGTTCTAACCTGTTGCCT (site CTACTTACTAG) | 0.302 |
| CTATTTACTTGGGTTCTAACCTGTTGCCT (site CTAGTTACTAG) | 0.19 |
| CTATTTACTTGGGTTCTAACCTGTTGCCT (site CTATTTACTAG) | 0.411 |
| CTCAATTCTTGGGTTCTAACCTGTTGCAA (site CTCAATACTTC) | 0.0332 |
| CTCAATTCTTGGGTTCTAACCTGTTGCAA (site CTCAATTCTTT) | 0.0558 |
| CTCAATTCTTGGGTTCTAACCTGTTGCAT (site CTCAATTCTAT) | 0.812 |
| CTCAATTCTTGGGTTCTAACCTGTTGCAT (site CTCCATTCTAT) | 0.0304 |

| Sequence | recombinant barcode read abundance (log10) |
| --- | --- |
| CTCAATTCTTGGGTTCTAACCTGTTGCAT (site CTCGATTCTAT) | 0.27 |
| CTCAATTCTTGGGTTCTAACCTGTTGCAT (site CTCTATTCTAT) | 0.148 |
| CTCATAACTTGGGTTCTAACCTGTTGCCG (site CTCATAACTCG) | 0.328 |
| CTCATAACTTGGGTTCTAACCTGTTGCCG (site CTCTAAACTCG) | 0.2 |
| CTCATATCTTGGGTTCTAACCTGTTGCTT (site CTCATATCTAA) | 1.18 |
| CTCATATCTTGGGTTCTAACCTGTTGCTT (site GAATGGACTTC) | 0.0724 |
| CTCCAACCTTGGGTTCTAACCTGTTGCCT (site CGCCCACCTAG) | 0.144 |
| CTCCAACCTTGGGTTCTAACCTGTTGCCT (site CTCCAACCTAG) | 1.54 |
| CTCCAACCTTGGGTTCTAACCTGTTGCGG (site CTCCAACCTCC) | 2.14 |
| CTCCAACCTTGGGTTCTAACCTGTTGCGG (site CTCCAGCCTCC) | 0.461 |
| CTCCATACTTGGGTTCTAACCTGTTGCCT (site CTCCATACTAG) | 0.814 |
| CTCCATACTTGGGTTCTAACCTGTTGCCT (site CTCCATCCTAG) | 0.0983 |
| CTCCATACTTGGGTTCTAACCTGTTGCCT (site CTCCATGCTAG) | 0.23 |
| CTCCATACTTGGGTTCTAACCTGTTGCCT (site CTCCATTCTAG) | 0.0874 |
| CTCCGAACTTGGGTTCTAACCTGTTGCAG (site CTCCGAACTCT) | 1.12 |
| CTCCGAACTTGGGTTCTAACCTGTTGCAG (site TCATATCCTAG) | 0.174 |
| CTCCGGACTTGGGTTCTAACCTGTTGCCT (site CTCCGGACTAG) | 2.02 |
| CTCCGGACTTGGGTTCTAACCTGTTGCCT (site CTCCGTACTAG) | 0.276 |
| CTCCGTACTTGGGTTCTAACCTGTTGCCT (site CTCCGGACTAG) | 0.0835 |
| CTCCGTACTTGGGTTCTAACCTGTTGCCT (site CTCCGTACTAG) | 0.858 |

| Sequence | recombinant barcode read abundance (log10) |
| --- | --- |
| CTCCTAGCTTGGGTTCTAACCTGTTGCTT (site CTCCGAGCTTA) | 0.00954 |
| CTCCTAGCTTGGGTTCTAACCTGTTGCTT (site CTCCTAGCTAA) | 0.277 |
| CTCCTCCCTTGGGTTCTAACCTGTTGCCT (site CTCCTCCCTAG) | 1.29 |
| CTCCTCCCTTGGGTTCTAACCTGTTGCCT (site CTCCTCTCTAG) | 0.275 |
| CTCCTCTCTTGGGTTCTAACCTGTTGCAT (site AAGTGAGCTTG) | 0.0369 |
| CTCCTCTCTTGGGTTCTAACCTGTTGCAT (site CTCCTCTCTAT) | 2.03 |
| CTCGAACCTTGGGTTCTAACCTGTTGCTG (site CTCGAACCTCA) | 1.93 |
| CTCGAACCTTGGGTTCTAACCTGTTGCTG (site CTCGAATCTTA) | 0.077 |
| CTCGGAACTTGGGTTCTAACCTGTTGCCT (site CTCGGAACTAG) | 0.374 |
| CTCGGAACTTGGGTTCTAACCTGTTGCCT (site CTCGGACCTAG) | 0.257 |
| CTCGGAACTTGGGTTCTAACCTGTTGCCT (site CTCGGAGCTAG) | 0.325 |
| CTCGGAACTTGGGTTCTAACCTGTTGCCT (site CTCGGATCTAG) | 0.366 |
| CTCGGACCTTGGGTTCTAACCTGTTGCCT (site CTCGGAACTAG) | 0.209 |
| CTCGGACCTTGGGTTCTAACCTGTTGCCT (site CTCGGACCTAG) | 2.42 |
| CTCGGACCTTGGGTTCTAACCTGTTGCCT (site CTCGGAGCTAG) | 0.147 |
| CTCGGACCTTGGGTTCTAACCTGTTGCCT (site CTCGGATCTAG) | 0.263 |
| CTCGGATCTTGGGTTCTAACCTGTTGCCT (site CTCGGAACTAG) | 0.0461 |
| CTCGGATCTTGGGTTCTAACCTGTTGCCT (site CTCGGACCTAG) | 0.391 |
| CTCGGATCTTGGGTTCTAACCTGTTGCCT (site CTCGGAGCTAG) | 0.0938 |
